According to US20250206714A1, “COMPOSITIONS AND METHODS FOR TREATMENT OF INFLAMMATORY DISEASES” (Invea Therapeutics, Inc., priority 2022, published 2025):
Entries after “also recorded” stand apart in the source; their conditions may differ.

How the values were obtained:
[1] = test system: MDR1; test: in vitro; design: Papp A→B at 60 min / Papp B→A at 60 min / efflux ratio at 60 min / recovery at 60 min / % recovery Apical concentration-Basal concentration / % recovery Basal concentration-Apical concentration: dose or concentration left out as unconfirmed; settings: dog, MDCK-MDR1
Procedure: (§1) Digoxin is used as reference and lucifer yellow is used as the integrity marker. […] Papp, efflux ratio and percent recovery are calculated.

[2] = test system: MDR1 (P-gp); test: in vitro; design: Papp A→B at 60 min / Papp B→A at 60 min / efflux ratio at 60 min / recovery at 60 min / % recovery Apical concentration-Basal concentration / % recovery Basal concentration-Apical concentration: dose or concentration left out as unconfirmed; settings: dog
Procedure: as §1

[3] = target: T1, CYP2D6 (Homo sapiens, UniProt P10635); test: Metabolic stability in human liver microsomes with CYP 2D6 inhibitor Quinidine; type: in vitro ADME; settings: 1 μM + Quinidine (20 μM)
T1 construct: The experiment was conducted in human liver microsomes; from tissue; host or cells: human liver microsomes

[4] = Solubility analysis (kinetic method, PBS pH 7.4); type: physicochemical; settings: phosphate buffered saline, aqueous buffer, kinetic from dmso stock, phosphate buffer saline (pH-7.4)
Procedure: Seven level calibration standards (i.e., 1, 5, 10, 50, 100, 200 and 300 μM) of the test compound were prepared from 20 mM primary stock solution in DMSO. An aliquot of 198 μL of PBS (pH-7.4) was dispensed into duplicate wells of a multiscreen solubility filter plate. Subsequently, 2 μL of test compound solution from 20 mM primary stock solution was added to give a final concentration of 200 μM, the plate was covered and shaken at 150 rotations per minute for 90 minutes. At the end of 90 minutes, samples were filtered using MultiScreen HTS vacuum Manifold assembly and the filtrates were collected into the acceptor plate. An aliquot of 150 μL of filtrate from the above 96-well acceptor plate were transferred into HPLC vials and analyzed by HPLC-PDA. Solubility was determined by comparing the absorbance of test/reference compound against the respective DMSO calibration curve.

[5] = test system: IL-1β; test: LPS+ATP-induced model of inflammasome activation, plasma IL-1β by ELISA; type: in vivo, Balb/c mice; settings: for % IL-1 β inhibition: mice plasma
Procedure: The procedures detailed here can be utilized for testing all compounds of the disclosure. The example utilizes LPS+ATP-induced model of inflammasome activation in 8-10 weeks old male Balb/c mice for in vivo testing.
8-10 weeks old male Balb/c mice were challenged by intraperitoneal (i.p.) injection of 200 μg/Kg (0.2 μg/g) LPS at t=0 hr, followed by i.p. injection of 5 mM solution of ATP at t=2 hr (2 h after LPS challenge). The compound of disclosure being tested for inhibitory activity (such as Compound 6) was administered both via intraperitoneal and oral route at −1 hr. Different doses of the compound of the disclosure were given to the mice […] as shown below.
MCC950, a specific small molecule inhibitor of NLRP3 inflammasome was used as a positive control to enable comparison of inhibitory activity of the compounds of the disclosure along with a known inhibitor. 2.5 hours after the LPS priming (or 0.5 hours after ATP administration), blood was collected via retro-orbital bleeding in heparinized blood collection tubes. Blood was centrifuged for 5 minutes at 10,000 rpm in a refrigerated centrifuge to obtain plasma. Separated plasma was used for cytokine assessment by ELISA. The standard curve (OD VS concentration) for IL-1β was also plotted and used to determine the IL-1β concentration for the OD values. The percentage of inhibition of IL-1β was calculated using the formula: […]

[6] = Metabolic stability assay in human liver microsomes in the presence of specific cytochrome P450 inhibitors (arm without inhibitor, summary statements)
[7] = target: T2, CYP 2C9 (Homo sapiens, UniProt P11712); test: Metabolic stability in human liver microsomes with CYP 2C9 inhibitor Sulfaphenazole; type: in vitro ADME; settings: 1 μM + Sulfaphenazole (20 μM)
T2 construct: The experiment was conducted in human liver microsomes; from tissue; host or cells: human liver microsomes

[8] = target: T3, CYP 1A2 (Homo sapiens, UniProt P05177); test: Metabolic stability in human liver microsomes with CYP 1A2 inhibitor Furafylline; type: in vitro ADME; settings: 1 μM + Furafylline (20 μM)
T3 construct: The experiment was conducted in human liver microsomes; from tissue; host or cells: human liver microsomes
T3 sequence (P05177 1-516): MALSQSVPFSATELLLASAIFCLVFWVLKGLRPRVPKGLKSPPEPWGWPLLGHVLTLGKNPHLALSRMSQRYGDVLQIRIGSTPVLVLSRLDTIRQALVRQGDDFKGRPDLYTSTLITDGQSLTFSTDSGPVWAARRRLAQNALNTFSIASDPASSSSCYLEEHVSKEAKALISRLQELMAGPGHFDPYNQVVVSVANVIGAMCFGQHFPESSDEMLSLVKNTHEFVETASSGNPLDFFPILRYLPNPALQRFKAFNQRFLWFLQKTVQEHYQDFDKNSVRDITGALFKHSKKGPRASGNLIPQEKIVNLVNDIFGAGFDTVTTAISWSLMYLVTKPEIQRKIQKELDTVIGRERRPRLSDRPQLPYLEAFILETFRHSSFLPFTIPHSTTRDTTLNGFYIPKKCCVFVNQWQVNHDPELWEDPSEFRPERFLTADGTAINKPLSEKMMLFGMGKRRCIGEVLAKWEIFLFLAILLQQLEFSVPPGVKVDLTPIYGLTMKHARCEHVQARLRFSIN

[9] = target: T4, CYP 2C19 (Homo sapiens, UniProt P33261); test: Metabolic stability in human liver microsomes with CYP 2C19 inhibitor Nootkatone; type: in vitro ADME; settings: 1 μM + Nootkatone (20 μM)
T4 construct: The experiment was conducted in human liver microsomes; from tissue; host or cells: human liver microsomes

[10] = human liver microsomes, 1 μM, no inhibitor
[11] = human, human liver microsomes, pH 7.4

T4 sequence (P33261 whole entry): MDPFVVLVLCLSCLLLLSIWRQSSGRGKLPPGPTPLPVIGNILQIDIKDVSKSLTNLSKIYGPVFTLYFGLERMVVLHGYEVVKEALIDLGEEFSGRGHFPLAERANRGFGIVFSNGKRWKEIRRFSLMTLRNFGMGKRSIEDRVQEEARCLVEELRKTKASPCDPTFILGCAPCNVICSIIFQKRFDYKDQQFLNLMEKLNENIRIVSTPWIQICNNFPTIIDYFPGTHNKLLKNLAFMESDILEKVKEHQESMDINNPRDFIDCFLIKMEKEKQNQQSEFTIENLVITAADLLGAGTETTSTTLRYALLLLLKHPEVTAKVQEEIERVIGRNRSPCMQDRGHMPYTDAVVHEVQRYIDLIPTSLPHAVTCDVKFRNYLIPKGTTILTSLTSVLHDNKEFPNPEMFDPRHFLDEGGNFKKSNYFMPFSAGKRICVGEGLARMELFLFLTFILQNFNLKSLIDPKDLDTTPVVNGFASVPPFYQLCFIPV
T2 sequence (P11712 whole entry): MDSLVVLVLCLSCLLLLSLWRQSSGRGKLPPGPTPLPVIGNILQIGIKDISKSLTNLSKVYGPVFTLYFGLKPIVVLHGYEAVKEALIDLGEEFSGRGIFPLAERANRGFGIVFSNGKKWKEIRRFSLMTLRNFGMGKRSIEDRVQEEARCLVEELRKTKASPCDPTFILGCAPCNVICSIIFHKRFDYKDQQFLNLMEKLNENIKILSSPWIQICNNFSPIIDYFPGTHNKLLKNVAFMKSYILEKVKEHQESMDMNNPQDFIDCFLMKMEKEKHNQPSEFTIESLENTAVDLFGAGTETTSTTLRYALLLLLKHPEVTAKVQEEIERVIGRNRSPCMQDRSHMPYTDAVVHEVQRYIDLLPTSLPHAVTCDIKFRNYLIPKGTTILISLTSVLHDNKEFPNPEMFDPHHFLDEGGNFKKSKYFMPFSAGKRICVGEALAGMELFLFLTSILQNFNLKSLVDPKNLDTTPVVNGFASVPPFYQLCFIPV
T1 sequence (P10635 whole entry): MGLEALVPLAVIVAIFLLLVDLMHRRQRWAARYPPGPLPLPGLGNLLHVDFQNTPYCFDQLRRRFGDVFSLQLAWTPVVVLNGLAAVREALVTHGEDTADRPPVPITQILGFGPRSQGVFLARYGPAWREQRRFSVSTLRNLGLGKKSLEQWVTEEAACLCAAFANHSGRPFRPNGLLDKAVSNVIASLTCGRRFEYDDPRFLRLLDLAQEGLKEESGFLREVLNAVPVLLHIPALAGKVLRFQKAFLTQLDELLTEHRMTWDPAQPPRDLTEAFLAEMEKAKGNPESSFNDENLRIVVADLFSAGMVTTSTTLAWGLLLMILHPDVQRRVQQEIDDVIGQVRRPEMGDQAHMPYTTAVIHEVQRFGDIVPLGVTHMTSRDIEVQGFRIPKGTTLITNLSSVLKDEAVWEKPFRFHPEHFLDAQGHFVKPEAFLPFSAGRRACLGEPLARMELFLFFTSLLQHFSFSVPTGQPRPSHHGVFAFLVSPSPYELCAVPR

Compound: O=C1Nc2ccccc2N(C(=O)CCl)c2ccc(F)cc21 [Compound 6, 5-(2-chloroacetyl)-2-fluoro-5,10-dihydro-11H-dibenzo[b,e][1,4]diazepin-11-one]
- Papp A→B at 60 min [1]: 26 ×10⁻⁶ cm/s
- Papp A→B at 60 min, 5 µM [1]: 26 ×10⁻⁶ cm/s
- Papp B→A at 60 min [1]: 31.6 ×10⁻⁶ cm/s
- efflux ratio at 60 min, 5 µM [1]: < 2
- efflux ratio at 60 min ([2]; MDCK-MDR1): 1.22
- recovery at 60 min ([2]; MDCK-MDR1, % recovery Apical concentration-Basal concentration): 49.1%
- recovery at 60 min ([2]; MDCK-MDR1, % recovery Basal concentration-Apical concentration): ~100%
- % rem @ 5 min [3]: 80.8%
- % rem @ 15 min [3]: 67.3%
- % rem @ 30 min [3]: 57.4%
- % rem @ 45 min [3]: 60.1%
- half-life at 1 µM ([3]; pH 7.4, with quinidine 20 µM): 1.07 h
- microsomal CLint at 1 μM ([3]; pH 7.4, with quinidine 20 µM, read-out: mCLint): 21.6 µL/min/mg
- solubility at 90 min [4]: > 200 µM
- % IL-1 β inhibition ([5]; 1 mg/kg, Intraperitoneal): 52%
- % IL-1 β inhibition ([5]; 10 mg/kg, Intraperitoneal): 79%
- % IL-1 β inhibition ([5]; 10 mg/kg, Oral): 46%
- plasma IL-1β levels under in vivo conditions (FIG. 4, in words) ([5]; escalating doses, LPS+ATP mice model): dose dependent reduction of IL-β; also recorded: dose dependent decrease in IL-1β levels
- stability in human liver microsomes (in words) ([6]; human liver microsomes): medium to highly stability
- degradation ([6]; human liver microsomes, in presence of specific CYP inhibitors): 40-45%
- % rem @ 5 min [6, 10]: 93.5%
- % rem @ 15 min [6, 10]: 92.9%
- % rem @ 30 min [6, 10]: 91.3%
- % rem @ 45 min [6, 10]: 67.8%
- half-life at 1 µM [6, 11]: 1.6 h
- microsomal CLint at 1 μM [6, 11]: 14.4 µL/min/mg
- degradation ([6]; incubated in human liver microsomes, no inhibitor): ~35%
- % rem @ 5 min [7]: 69.7%
- % rem @ 15 min [7]: 63.3%
- % rem @ 30 min [7]: 73.8%
- % rem @ 45 min [7]: 54.3%
- half-life at 1 µM ([7]; pH 7.4, with Sulfaphenazole 20 μM): 1.28 h
- microsomal CLint at 1 μM ([7]; pH 7.4, with Sulfaphenazole 20 μM, read-out: mCLint): 18 µL/min/mg
- % rem @ 5 min [8]: 96.8%
- % rem @ 15 min [8]: 87.7%
- % rem @ 30 min [8]: 66.9%
- % rem @ 45 min [8]: 63.2%
- half-life at 1 µM ([8]; pH 7.4, with Furafylline 20 μM): 1.03 h
- microsomal CLint at 1 μM ([8]; pH 7.4, with Furafylline 20 μM, read-out: mCLint): 22.5 µL/min/mg
- % rem @ 5 min [9]: ~100%
- % rem @ 15 min [9]: 98.6%
- % rem @ 30 min [9]: 84.6%
- % rem @ 45 min [9]: 58.7%
- half-life at 1 µM ([9]; pH 7.4, with Nootkatone 20 μM): 0.91 h
- microsomal CLint at 1 μM ([9]; pH 7.4, with Nootkatone 20 μM, read-out: mCLint): 25.4 µL/min/mg
